Data taken from patent US20170029436A1, “NEOSORAPHENS” (Helmoltz-Zentrum für Infektionsforschung GmbH, priority 2014, published 2017).

Legend:
[1] = tested on: genotype 2a (Jc1 chimera) HCVcc virus; assay: HCV cell-culture (HCVcc) infection assay, Luc-Jc1 luciferase reporter in Huh7/Scr cells; type: cell-based; conditions: for EC50: Hepatitis C virus, Huh-7, 72 h, read-out: EC50 (antiviral activity, HCV infection); for SI (Selectivity Index): calculated from EC50 and CC50
Method: (§1) To assess the inhibitory effects of Neosoraphens on HCV infection, a HCV cell-culture (HCVcc) system^[1-3] was used. Unless otherwise stated, Huh7/Scr cells (provided by F. Chisari, The Scripps Research Institute, La Jolla, Calif.) which are highly permissive for HCV propagation in vitro were employed. The experiments were performed in the context of genotype 2a (Jc1 chimera^[4]) HCVcc virus. To facilitate the quantification of infection, the bicistronic Jc1 luciferase reporter construct, designated Luc-Jc1^[5], was used. The commercial ACC inhibitor 5-(Tetradecyloxy)-2-furoic acid (TOFA), which has been previously described to inhibit HCV replication^[6], was chosen for comparison of the antiviral activities of the Neosoraphens. The NS3-4A serine protease inhibitor VX-950^[7], a known HCV replication inhibitor, was used as positive control. Briefly, Huh7/Scr cells were seeded at a density of 1.2×10^4 cells/well in 96-well plates. One day later cells were pre-incubated for 1 h at 37° C. with the compounds and then inoculated with the virus and the compounds for 4 h at 37° C. Finally, virus-containing media was replaced by a fresh media-compounds mix. Firefly luciferase activities were assayed 72 h post infection with the Dual-Glo® Luciferase Assay System while cytotoxicity (viability) assays were carried out with the CytoTox-Glo™ Cytotoxicity Assay (both purchased from Promega Corporation, Madison, Wis.), according to manufacturer's instructions, using a plate luminometer FLUOstar OPTIMA (BMG LABTECH, Ortenberg, Germany). Mean relative light units (RLU) were plotted as percentage relative to control infections (solvent without compounds) for both infectivity and cell viability. Infections were carried out in triplicates and measured in duplicates (mean±SEM; n=6). Half maximal effective concentration (EC50) and half maximal cytotoxic concentration 50 (CC50) were estimated by non-linear regression of log inhibitor vs. normalized response and used to calculate the Selectivity Index (SI) value.

[2] = CytoTox-Glo cytotoxicity (viability) assay; type: cell-based; conditions: human, Huh7/Scr cells, read-out: CC50 (half maximal cytotoxic concentration)
Method: as §1

[3] = tested on: Naive mouse CD4+ T cells under Th17 conditions; assay: In vitro Th17 differentiation of naive CD4+ T cells (IL-17A+ cells by flow cytometry); type: cell-based; conditions: 4 days under Th17 conditions, FIG. 1A; for percentage of IL-17A producing T-cells (inhibition of Th17 differentiation): varying concentrations
Method: (§2) Single cell suspensions were prepared and pooled from the spleen, mesenteric and peripheral lymph nodes of adult C57BL/6 mice by filtering the crushed organs through a 70 μm cell-strainer. Naïve CD4+CD25^−CD62L+ T cells were subsequently isolated from these suspensions using the CD4+CD25^−CD62L+ T cell isolation Kit II and AutoMACS according to the manufacturer's protocol (Miltenyi Biotec) or by FACS sorting. Purified T cells were cultured under classic Th17 inducing conditions (Bettelli et al., Nature 441(7090): 235-8 (2006)). In detail, the cells were cultured in 96 well flat bottom plates (3×10^5 cells per well), that were precoated with 10 μg/ml anti-CD3 Antibody (clone 145-2C11, BioXcell) in the presence of antibodies against CD28 (1 μg/ml, clone 37.51, BioXcell), IFN-γ (5 μg/ml, clone XMG1.2, BioXcell) and IL-4 (5 μg/ml, clone 11B11, BioXcell) as well as in the presence of TGFβ1 (2 ng/ml, R&D), IL-6 (5 ng/ml, R&D) and IL-1β (50 ng/ml, R&D) in IMDM Medium (supplemented with 10% FCS+500 U PenStrep+50 μM β-Mercaptoethanol). To these cultures, increasing concentrations of ACC Inhibitors Soraphen A or 5-(Tetradecyloxy)-2-furoic acid (TOFA) (both dissolved in DMSO) were added on day 0 and cultured for up to 4 days in an cell culture incubator (37° C. and 5% CO2). As control, cells were cultured in the presence of DMSO only.
(§3) Were indicated, cells from Th17 cultures were restimulated with 100 ng/ml phorbol 12-myristate 13-acetate (Sigma) and 1 μg/ml Inonomycin (Sigma) for 4 h and Brefeldin A (1:1000, Sigma) was added for the last 2 h of restimulation. After restimulation, cells were harvested for flow cytometry. For surface staining: fluorophore-labelled mAbs aginst CD3ε and CD4 were obtained from eBiosciences. For intracellular staining, cells were fixed with Fix/Perm (eBioscience) according to the manufacturer's protocol, and stained intracellular with fluorophore-labelled mAbs directed against IL-17A and Foxp3 (eBiosciences). Cells were run on a flow cytometer (CyAn, Beckman Coulter) and data was analysed on FlowJo (TreeStar) software.
(§4) To isolate naive CD4+CD25^−CD62L+ T cells by FACS-sorting, lymphocyte suspensions were surface-stained with fluorophore-labelled mAbs aginst CD4, CD25 and CD62L (all from ebioscience) and live CD4+CD25^−CD62L+ T cells were sorted to >98% purity using a Moflo (Beckman Coulter) or FACS ARIAII (BD Biosciences) cell sorter.
(§5) Naive mouse CD4^+ T cells were cultured for 4 days under Th17 conditions in the presence of varying concentrations of the compounds of the invention. As control, cells were cultured in the presence of DMSO only (negative control) or ACC inhibitor Soraphen A (positive control). After 4 days, cells were restimulated with PMA/Ionomycin for 4 h and Brefeldin A for 2 h and further analysed by flow cytometry.

[4] = tested on: Naive mouse CD4+ T cells under Th17 conditions; assay: Induction of Foxp3+ Treg differentiation in Th17 cultures (flow cytometry); type: cell-based; conditions: 4 days under Th17 conditions, varying concentrations, FIG. 1B
Method: as §2, §3, §4, §5

[5] = tested on: rotavirus (RV); conditions: Gaunt et al., J Gen Virol 2013; cited from earlier work

SMILES	EC50 [1] [µM]	SI (Selectivity Index) [1]	CC50 at 72 h [2] [µM]	percentage of IL-17A producing T-cells (inhibition of Th17 differentiation) [3]	differentiation of Foxp3+ Treg cells [4]	EC50 ([3]; read-out: EC50 for decrease of IL-17A producing T-cells) [µM]	reduction of infectivity of progeny rotavirus [5] [fold]	reduction of viral RNA production [5] [fold]
COC1CCCCC(c2ccccc2)OC(=O)CC2(O)CC(O)C(C)C(O2)C(C)/C=C/C1O (stereo not shown) [Neosoraphen M462]	0.00774	1752	13.6	Inhibition of Th17	induction of Treg differentiation			
COC1CCCCC(c2ccccc2)OC(=O)CC2(O)CC(O)C(C)C(O2)C(C)CCC1O (stereo not shown) [Neosoraphen M464]	0.046	1136	52.2	Inhibition of Th17	induction of Treg differentiation			
COC1/C=C/C(C)C2OC(O)(CC(=O)OC(c3ccccc3)CCCCC1OC)CC(O)C2C (stereo not shown) [Neosoraphen M476]	0.00209	95072	199	Inhibition of Th17	induction of Treg differentiation			
COC1CCCCC(c2ccccc2)OC(=O)CC2(O)CC(O)C(C)C(O2)C(C)CCC1OC (stereo not shown) [Neosoraphen M478]	0.00152	64961	98.7	Inhibition of Th17	induction of Treg differentiation			
COC1CCCCC(c2ccccc2)OC(=O)CC2(O)CC(O)C(C)C(O2)C(C)C(O)CC1O (stereo not shown) [Neosoraphen M480]	0.0657	693	45.5					
CO[C@H]1CCCC[C@@H](c2ccccc2)OC(=O)[C@@H](C)[C@@]2(O)O[C@H]([C@@H](C)[C@H](O)[C@H]2OC)[C@@H](C)/C=C/[C@H]1OC [Soraphen A, reference compound]				decreases the percentage of IL-17A producing T-cells in a dose dependent manner	induces the reciprocal differentiation of Foxp3+ Treg cells	0.04		
CCCCCCCCCCCCCCOc1ccc(C(=O)O)o1 [TOFA, 5-(Tetradecyloxy)-2-furoic acid, reference compound]	1.01	34	33.9				31	6
CCC[C@H](NC(=O)[C@@H]1[C@H]2CCC[C@H]2CN1C(=O)[C@@H](NC(=O)[C@@H](NC(=O)c1cnccn1)C1CCCCC1)C(C)(C)C)C(=O)C(=O)NC1CC1 [VX-950, reference compound]	0.0189	4995	94.5					
